One series deals with T1, CYP2D6 (Homo sapiens, UniProt P10635).
T1 construct: tissue BD-Gentest 452117; host or cells: human liver microsomes
Put plainly: CYP inhibition assay in human liver microsome. Format: in vitro ADME. The note with it: human liver microsomes, probe dextromethorphan, 10µM test compound, dextromethorphan substrate, <0: not or weak inhibitor, read-out: CYP 2D6 inhibition %@10µM. Here is the method: This is a high throughput screening assay used for assessment of reversible inhibition of CYP2D6 activity of test compounds in human liver microsome (HLM) in early discovery stage. Table 4. Chemicals and materials used in the CYP inhibition assay
10 mM DMSO stock solutions of test compounds were diluted in DMSO to generate 2 mM intermediate stock solution. 250 nL of intermediate stock solution were transferred in duplicate into 3 separate 384 well microtitre plates (assay-ready plates). A mixture of HLM and each substrate was made up. 45 µL of HLM substrate mix was then transferred to each well of an assay ready plate and mixed. The negative (solvent) and positive control (standard inhibitor for CYP 2D6) were included in each assay ready plate. The assay ready plate was warmed to 37 °C in an incubator over 10 minutes. 5 µL pre-warmed NADPH regenerating system was added to each incubation well to start the reaction. Final incubation volume was 50 µL. The assay plate then was placed back in the 37 °C incubator. After 10-minute incubation, incubates were quenched by addition of 50 µL 100% acetonitrile containing internal standards (20 ng/mL D3-Dextrorphan). The supernatants were collected for RapidFire/MS/MS analysis.
RapidFire online solid phase extraction/sample injection system (Agilent) coupled with API4000 triple quadrupole mass spectrometer (AB Sciex) were used for sample analysis. The mobile phase composed of acetonitrile and water supplemented with 0.1% formic acid. A C4 solid phase extraction cartridge is used for sample separation. MS detection is achieved in positive ion MRM mode.
Peak areas for substrate, metabolite and internal standard are determined using the RapidFire integrator software (version 3.6.12009.12296). Peak area ratios (PAR) of metabolite and internal standard (stable-labelled metabolite) are then calculated. The measurement window for each experiment is then defined: • PAR (0% activity)= average PAR for all incubations containing concentrated inhibitor; • Par (100% activity)= average PAR for all incubations containing no inhibitor (DMSO controls); • % Activity (test inhibitor) • =[PAR(test inhibitor)-PAR(0% activity)]/[PAR(100% activity)-PAR(0% activity)]; • % Inhibition (test inhibitor)=100-% Activity (test inhibitor).
In general terms: Microsomes from liver hold many membrane-bound enzymes, among them those of drug oxidation.

In the next series the target is T2, hTLR9 (Homo sapiens, UniProt Q9NR96).
T2 sequence (Q9NR96 26-1032): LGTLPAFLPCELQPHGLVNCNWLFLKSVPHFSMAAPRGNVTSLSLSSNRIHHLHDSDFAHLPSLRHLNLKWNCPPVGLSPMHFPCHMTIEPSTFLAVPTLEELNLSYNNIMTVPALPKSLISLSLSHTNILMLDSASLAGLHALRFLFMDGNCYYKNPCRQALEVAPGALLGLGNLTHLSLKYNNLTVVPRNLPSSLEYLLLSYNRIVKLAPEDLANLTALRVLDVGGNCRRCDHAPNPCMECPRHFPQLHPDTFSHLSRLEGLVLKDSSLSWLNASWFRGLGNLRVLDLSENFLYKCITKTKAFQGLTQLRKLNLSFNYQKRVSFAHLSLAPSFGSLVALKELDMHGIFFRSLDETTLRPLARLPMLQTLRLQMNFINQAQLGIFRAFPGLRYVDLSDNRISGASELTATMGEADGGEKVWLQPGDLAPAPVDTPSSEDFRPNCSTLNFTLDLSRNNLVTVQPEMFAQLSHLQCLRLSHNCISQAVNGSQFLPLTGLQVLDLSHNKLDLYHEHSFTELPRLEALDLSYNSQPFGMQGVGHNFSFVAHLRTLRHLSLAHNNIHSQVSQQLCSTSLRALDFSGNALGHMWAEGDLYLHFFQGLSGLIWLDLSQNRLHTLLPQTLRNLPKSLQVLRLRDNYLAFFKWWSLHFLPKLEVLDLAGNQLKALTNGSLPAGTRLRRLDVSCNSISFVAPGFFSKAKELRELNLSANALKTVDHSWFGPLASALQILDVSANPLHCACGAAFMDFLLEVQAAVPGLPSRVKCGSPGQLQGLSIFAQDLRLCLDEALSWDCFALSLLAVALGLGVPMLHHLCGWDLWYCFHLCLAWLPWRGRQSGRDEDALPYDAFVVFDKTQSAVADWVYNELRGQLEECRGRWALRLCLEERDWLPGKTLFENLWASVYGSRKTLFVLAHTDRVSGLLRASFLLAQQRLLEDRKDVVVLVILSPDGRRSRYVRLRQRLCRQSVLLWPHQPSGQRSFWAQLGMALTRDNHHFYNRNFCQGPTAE
The series can be described thus: HEK293-Blue-hTLR-9 cells assay (SEAP reporter, ODN2006 stimulation). Format: cell-based. On the set-up: host or cells: HEK293 (HEK-Blue). Particulars: HEK293-Blue-hTLR9 cells, ODN2006, 20 hrs; read-out: HEK/hTLR9 IC50. The text has this:
A stable HEK293-Blue-hTLR-9 cell line was purchased from InvivoGen (Cat.#: hkb-htlr9, San Diego, California, USA). These cells were originally designed for studying the stimulation of human TLR9 by monitoring the activation of NF-κB. A SEAP (secreted embryonic alkaline phosphatase) reporter gene was placed under the control of the IFN-β minimal promoter fused to five NF-κB and AP-1-binding sites. The SEAP was induced by activating NF-κB and AP-1 via stimulating HEK-Blue hTLR9 cells with TLR9 ligands. Therefore, the reporter expression was declined by TLR9 antagonist under the stimulation of a ligand, such as ODN2006 (Cat.#: tlrl-2006-1, Invivogen, San Diego, California, USA), for incubation of 20 hrs. The cell culture supernatant SEAP reporter activity was determined using QUANTI-Blue™ kit (Cat.#: rep-qb 1, Invivogen, San Diego, California, USA) at a wavelength of 640 nm, a detection medium that turns purple or blue in the presence of alkaline phosphatase.
HEK293-Blue-hTLR9 cells were incubated at a density of 250,000-450,000 cells/mL in a volume of 170 µL in a 96-well plate in Dulbecco's Modified Eagle's medium (DMEM) containing 4.5 g/L glucose, 50 U/mL penicillin, […], […], 2 mM L-glutamine, 10% (v/v) heat-inactivated fetal bovine serum with addition of 20 µL test compound in a serial dilution in the presence of final DMSO at 1% and 10 µL of 20uM ODN2006 in above DMEM, perform incubation under 37 °C in a CO2 incubator for 20 hrs. Then 20 µL of the supernatant from each well was incubated with 180 µL Quanti-blue substrate solution at 37 °C for 2 hrs and the absorbance was read at 620-655 nm using a spectrophotometer. The signaling pathway that TLR9 activation leads to downstream NF-κB activation has been widely accepted, and therefore similar reporter assay was modified for evaluating TLR9 antagonist.

T1 sequence (P10635 whole entry): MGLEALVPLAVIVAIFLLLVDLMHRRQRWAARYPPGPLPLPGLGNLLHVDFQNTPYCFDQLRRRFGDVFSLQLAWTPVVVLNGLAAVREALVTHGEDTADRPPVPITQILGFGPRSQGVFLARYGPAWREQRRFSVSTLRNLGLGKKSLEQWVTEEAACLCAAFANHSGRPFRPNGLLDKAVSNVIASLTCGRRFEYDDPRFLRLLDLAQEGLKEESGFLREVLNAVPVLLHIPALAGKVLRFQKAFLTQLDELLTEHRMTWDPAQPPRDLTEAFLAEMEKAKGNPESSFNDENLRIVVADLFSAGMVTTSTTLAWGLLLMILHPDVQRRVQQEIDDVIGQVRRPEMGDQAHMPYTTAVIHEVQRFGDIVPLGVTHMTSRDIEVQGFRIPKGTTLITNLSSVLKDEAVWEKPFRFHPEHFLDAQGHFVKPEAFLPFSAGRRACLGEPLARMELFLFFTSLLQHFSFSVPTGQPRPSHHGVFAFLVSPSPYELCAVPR

`C[C@@H]1CN(c2ccc(C#N)c3ncccc23)C[C@H](CN2CCC(Nc3ncc4c(n3)CCNC4)C2)O1` (stereo partly drawn) [Example 57, 5-[(2R,6S)-2-methyl-6-[[3-(5,6,7,8-tetrahydropyrido [4,3-d]pyrimidin-2-ylamino)pyrrolidin-1-yl]methyl]morpholin-4-yl] quinoline-8-carbonitrile]: the inhibition (usually the relative decrease from the control value, in per cent) at 10 min, 10 µM on CYP2D6 is -8%. Moreover, the IC50 on hTLR9 is 36 nM.
The corresponding values for `C[C@@H]1CN(c2ccc(C#N)c3ncccc23)C[C@H](CN2CCN(c3ccc4c(c3)CNC4)CC2)O1` [Example 7, 5-[(2S,6R)-2-[(4-isoindolin-5-ylpiperazin-1-yl)methyl]-6-methyl-morpholin-4-yl] quinoline-8-carbonitrile] are 15% and 89 nM.
The corresponding values for `C[C@@H]1CN(c2ccc(C#N)c3ncccc23)C[C@H](CN2CCN(c3cnc4c(n3)CNCC4)CC2)O1` [Example 40, 5-[(2R,6S)-2-methyl-6-[[4-(5,6,7,8-tetrahydropyrido[3,4-b]pyrazin-3-yl)piperazin-1-yl]methyl]morpholin-4-yl]quinoline-8-carbonitrile] are 8% and 123 nM.
The corresponding values for `C[C@@H]1CN(c2ccc(C#N)c3ncccc23)C[C@H](CN2CCN(c3cnc4c(n3)CCNC4)CC2)O1` [Example 17, 5-[(2R,6S)-2-methyl-6-[[4-(5,6,7,8-tetrahydropyrido[3,4-b]pyrazin-2-yl)piperazin-1-yl]methyl]morpholin-4-yl]quinoline-8-carbonitrile] are 4.5% and 98 nM.
Take `C[C@@H]1CN(c2ccc(C#N)c3ncccc23)C[C@H](CN2CCN(c3ccc4c(n3)CNC4)CC2)O1` [Example 30, 5-[(2S,6R)-2-[[4-(6,7-dihydro-5H-pyrrolo[3,4-b]pyridin-2-yl)piperazin-1-yl]methyl]-6-methyl-morpholin-4-yl] quinoline-8-carbonitrile]: the inhibition at 10 min, 10 µM on CYP2D6 turned out to be 17.5%. In addition, on hTLR9, the IC50 was found to be 41 nM.
The corresponding values for `C[C@@H]1CN(c2ccc(C#N)c3ncccc23)C[C@H](CN2CCN(c3cnc4c(c3)CNCC4)CC2)O1` [Example 21, 5-[(2R,6S)-2-methyl-6-[[4-(5,6,7,8-tetrahydro-1,6-naphthyridin-3-yl)piperazin-1-yl]methyl]morpholin-4-yl]quinoline-8-carbonitrile] are -4.5% and 52 nM.
On the same counts, the results for `C[C@@H]1CN(c2ccc(C#N)c3ncccc23)C[C@H](CN2CCN(c3cccc4c3CNC4)CC2)O1` [Example 2, 5-[(2S,6R)-2-[(4-isoindolin-4-ylpiperazin-1-yl)methyl]-6-methyl-morpholin-4-yl] quinoline-8-carbonitrile] are -5% and 58 nM.
On the same counts, the results for `C[C@@H]1CN(c2ccc(C#N)c3ncccc23)C[C@H](CN2CC3(C2)CN(c2ccc4c(n2)CCNC4)CCO3)O1` [Example 49, 5-[(2R,6S)-2-methyl-6-[[8-(5,6,7,8-tetrahydro-1,6-naphthyridin-2-yl)-5-oxa-2,8-diazaspiro[3.5]nonan-2-yl]methyl]morpholin-4-yl]quinoline-8-carbonitrile] are 22% and 48 nM.
In the case of `C[C@@H]1CN(c2ccc(C#N)c3ncccc23)C[C@H](CN2CCN(c3ccc4c(n3)CNCC4)CC2)O1` [Example 69, 5-[(2R,6S)-2-methyl-6-[[4-(5,6,7,8-tetrahydro-1,7-naphthyridin-2-yl)piperazin-1-yl]methyl]morpholin-4-yl]quinoline-8-carbonitrile], at CYP2D6, the inhibition at 10 min, 10 µM was determined as 8.5%. In addition, the IC50 on hTLR9 came out at 83 nM.
For `C[C@@H]1CN(c2ccc(C#N)c3ncccc23)C[C@H](CN2CC3(C2)CN(c2ncc4c(n2)CCNC4)CCO3)O1` [Example 51, 5-[(2R,6S)-2-methyl-6-[[8-(5,6,7,8-tetrahydropyrido[4,3-d]pyrimidin-2-yl)-5-oxa-2,8-diazaspiro[3.5]nonan-2-yl]methyl]morpholin-4-yl]quinoline-8-carbonitrile], on hTLR9, the IC50 was 134 nM.
Same read-out and setting: next, `C[C@@H]1CN(c2ccc(C#N)c3nccnc23)C[C@H](CN2CCN(c3cc4c(cn3)[C@H](C)NCC4)CC2)O1` (single isomer, unassigned) [Example 85]: 87 nM; `C[C@@H]1CN(c2ccc(C#N)c3ncccc23)C[C@H](CN2CCN(c3nccc4c3CCNC4)CC2)O1` [Example 62, 5-[(2R,6S)-2-methyl-6-[[4-(5,6,7,8-tetrahydro-2,6-naphthyridin-1-yl)piperazin-1-yl]methyl]morpholin-4-yl]quinoline-8-carbonitrile]: 151 nM.
As to `C[C@@H]1CN(c2ccc(C#N)c3ncccc23)C[C@H](CN2CCN(c3ccc4c(n3)CCNC4)C[C@@H](O)C2)O1` (single isomer, unassigned) [Example 35B], at hTLR9, the IC50 was 117 nM.
Still for that read-out and setting: the result for `C[C@@H]1CN(c2ccc(C#N)n3ncc(F)c23)C[C@H](CN2CCN(c3cnc4c(c3)CNC4)CC2)O1` [Example 26, 4-[(2S,6R)-2-[[4-(6,7-dihydro-5H-pyrrolo[3,4-b]pyridin-3-yl)piperazin-1-yl]methyl]-6-methyl-morpholin-4-yl]-3-fluoro-pyrazolo[1,5-a]pyridine-7-carbonitrile] reads 119 nM.
Still for that read-out and setting: next, `C[C@@H]1CN(c2ccc(C#N)c3ncccc23)C[C@H](CN2CCN(c3ccc4c(c3)CNC4)C(CO)C2)O1` (stereo partly drawn) [Example 13, 5-[(2S,6R)-2-[[3-(hydroxymethyl)-4-isoindolin-5-yl-piperazin-1-yl]methyl]-6-methyl-morpholin-4-yl]quinoline-8-carbonitrile]: 109 nM.

The record behind these values is EP3807270B1, “NOVEL HETEROARYL HETEROCYCLYL COMPOUNDS FOR THE TREATMENT OF AUTOIMMUNE DISEASE” (F. Hoffmann-La Roche AG, priority 2018, dated 2019).
